This passage reports IC50 and inhibition results from patent publication US20100004238A1, “FUSED HETEROCYCLIC COMPOUND” (TAKEDA PHARMACEUTICAL COMPANY LIMITED, priority 2006, published 2010).

Molecules are shown by their SMILES. Structures can show the parent of a compound that is named as a salt.

The subject of assay [1] is human breast cancer cell BT-474. The experiment in a line: Inhibitory action on breast cancer cell BT-474 proliferation in vitro. The assay is classed as cell-based. As to conditions: 120 h, BT-474 cells, cultured for 5 days with compound, SRB protein content. Here is the method: A suspension of human breast cancer cell BT-474 (100 μl (6,000 cells)) were plated in a 96-well microplate and cultured in an incubator (37° C., 5% carbon dioxide). On the following day, 100 μl of a solution of each test compound previously diluted serially in 2-fold, was added, and the cells were cultured for 5 days. After the culture medium containing the test compound was removed, the cells were washed and fixed with 50% trichloroacetic acid, after which a 0.4% (w/v) SRB dye solution (dissolved in 1% acetic acid) was added to stain as well as fix the cell protein (Skehan et al., Journal of the National Cancer Institute, Vol. 82, pp. 1107-1112, 1990). After washing with a 1% acetic acid solution, 100 μl of extract solution (10 mM, Tris buffer) was added to extract the dye and the absorbance was measured at a wavelength of 550 nm to quantify the amount of cells as protein content. Taking as 100% the protein content for the control group, which received no test compound solution, the ratio of the residual protein content for each treatment group was determined, and the compound concentration required to achieve 50% suppression of the residual cell content relative to the control (IC50 value) was calculated.

For assay [2], the target named is T1, HER2 intracellular domain (HER2 kinase) (Homo sapiens, UniProt P04626).
T1 construct: made in house; host or cells: SF-21 insect cells infected with recombinant baculovirus BAC-HER2
T1 sequence (P04626 676-1255): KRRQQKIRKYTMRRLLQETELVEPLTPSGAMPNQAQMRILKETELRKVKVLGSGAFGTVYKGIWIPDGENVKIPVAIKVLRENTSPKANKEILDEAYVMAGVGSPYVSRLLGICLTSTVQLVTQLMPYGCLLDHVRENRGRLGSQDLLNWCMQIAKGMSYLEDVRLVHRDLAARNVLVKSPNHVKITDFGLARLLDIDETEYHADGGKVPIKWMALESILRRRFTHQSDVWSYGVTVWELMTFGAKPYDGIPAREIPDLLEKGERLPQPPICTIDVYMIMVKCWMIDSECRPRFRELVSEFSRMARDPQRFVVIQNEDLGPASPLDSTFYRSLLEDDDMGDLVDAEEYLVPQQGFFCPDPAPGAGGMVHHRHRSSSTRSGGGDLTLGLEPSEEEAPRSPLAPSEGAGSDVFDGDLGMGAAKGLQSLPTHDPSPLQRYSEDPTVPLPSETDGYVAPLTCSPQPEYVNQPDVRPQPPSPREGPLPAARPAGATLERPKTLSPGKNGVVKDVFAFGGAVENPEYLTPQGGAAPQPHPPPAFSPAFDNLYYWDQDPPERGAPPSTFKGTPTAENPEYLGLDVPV
Description: Determination of HER2 kinase inhibitory activity. The format is biochemical. As to conditions: compound at 1.0 μM, poly-Glu:Tyr (4:1) substrate, [γ-32P]ATP, read-out: inhibitory rate (%) at 1.0 μM. The method, then:
Human HER2 gene was cloned by RT-PCR using total RNA prepared from MCF7 cells as a template. The primer used for RT-PCR was prepared in consideration of the information of nucleotide sequence (Genbank Accession No. M11730) of HER2 gene by adding a nucleotide sequence encoding DYKDDDD peptide and a restriction enzyme recognition sequence to a nucleotide sequence (corresponding to 2176-3918 of Genbank Accession No. M11730 as a base, 676-1255 amino acids of Genbank Accession No. NP_004439 as a protein) encoding the HER2 intracellular domain region such that the protein contains an N-terminal DYKDDDD peptide tag. The primer nucleotide sequence is shown below.
SF-21 cells were sown at 1×10^6 cells/mL in Sf-900II SFM medium (1 L, Invitrogen) containing 10% fetal bovine serum (trace), 50 mg/L gentamicin (Invitrogen) and 0.1% Pluronic F-68 (Invitrogen), and shaking culture was performed using a 2 L volume Erlenmeyer flask at 27° C., 100 rpm. After culturing for 24 hr, recombinant baculovirus BAC-HER2 (13.4 mL) was added, and the mixture was further cultured for 3 days. The culture medium was centrifuged at 2,000 rpm for 5 min to give virus-infected cells. The infected cells were washed with a phosphate buffered saline (Invitrogen), centrifuged under the same conditions, and the cells were preserved at −80° C. The cryopreserved cells were thawed in ice, suspended in buffer A (50 mM Tris buffer (30 mL, pH 7.4) containing 20% glycerol, 0.15 M NaCl) supplemented with Complete Protease Inhibitor (Boehringer), and ruptured 3 times with a Polytron homogenizer (Kinematica) at 20,000 rpm for 30 sec. The ruptured solution was clarified by centrifugation at 40,000 rpm for 30 min, and filtered with a 0.45 μm filter. The filtrate was passed through a column packed with Anti-FLAG M2 Affinity Gel (4 mL, Sigma-Aldrich) at a flow rate of about 0.5 mL/min. The column was washed with buffer A, and eluted with buffer A containing 100 μg/mL of FLAG peptide. The eluent was concentrated with Vivaspin 20 (Vivascience) having a molecular weight cut off of 30K. The concentrate was purified by gel filtration using Hi Load 16/60 Superdex 200 pg (GE Healthcare Bioscience) equilibrated with buffer A. The fractions containing HER2 intracellular domain were collected and cryopreserved at −80° C.
HER2 kinase reaction was performed using a 96 well plate. As a buffer for kinase reaction, a buffer having a composition of 50 mM Tris-HCl (pH 7.5), 5 mM MnCl2, 2 mM dithiothreitol, 0.01% Tween-20 was used. The compound of the present invention was dissolved in dimethyl sulfoxide (DMSO), and diluted with the kinase reaction buffer so that DMSO concentration would be 0.1% during kinase reaction. This compound solution (10 μL) was mixed with a kinase reaction buffer […] containing HER2 intracellular domain (0.625 μg/mL) obtained in Experimental Example 1B and polypeptide substrate poly-Glu:Tyr (4:1) (Sigma Ltd., 12.5 μg/mL), and the mixture was stood at room temperature for 5 min. Then, a kinase reaction buffer (20 μL) containing 125 μM ATP and 45 μCi/mL [γ-^32P]ATP was added, and the kinase reaction was initiated with 50 μL of the final reaction mixture. A kinase reaction was performed at room temperature for 10 min, and the kinase reaction was quenched by addition of 20% TCA solution (50 μL). The mixture after completion of the reaction was stood at room temperature for 30 min, and acid insoluble fractions in the mixture after completion of the reaction were collected in a 96 well GF/C filter plate (PerkinElmer) using a cell harvester (PerkinElmer). Thereafter, the filter containing the acid insoluble fractions was washed with 3% phosphoric acid solution. After washing, the filter plate was dried at 45° C. for 60 min, and 25 μL of MicroScinti 0 (PerkinElmer) was added. The radioactivity was measured using TopCount (PerkinElmer). HER2 kinase inhibitory rate (%) of the test compound was calculated by the following formula: […]

With `OCCn1ccc2ncnc(Nc3ccc(Oc4cccc5[nH]ccc45)c(Cl)c3)c21` [Example 10, 2-(4-{[3-chloro-4-(1H-indol-4-yloxy)phenyl]amino}-5H-pyrrolo[3,2-d]pyrimidin-5-yl)ethanol], the IC50 (as a rule, the point on the concentration scale where inhibition reaches its midpoint) in assay [1] was below 0.1 µM. The inhibition at 1 µM in assay [2] is 99%.

With `CC(C)(C)NC(=O)c1cncc(Oc2ccc(Nc3ncnc4ccn(CCO)c34)cc2Cl)c1` [Example 26, N-(tert-butyl)-5-(2-chloro-4-{[5-(2-hydroxyethyl)-5H-pyrrolo[3,2-d]pyrimidin-4-yl]amino}phenoxy)nicotinamide], the IC50 in assay [1] was below 0.1 µM. Also, in assay [2], the inhibition at 1 µM worked out at 100%.

Take `O=C1Cc2c(cccc2Oc2ccc(Nc3ncnc4ccn(CCO)c34)cc2Cl)N1` [Example 28, 4-(2-chloro-4-{[5-(2-hydroxyethyl)-5H-pyrrolo[3,2-d]pyrimidin-4-yl]amino}phenoxy)-1,3-dihydro-2H-indol-2-one]: the IC50 in assay [1] was below 0.1 µM. The inhibition at 1 µM in assay [2] stood at 100%.

As to `CC(C)(C)NC(=O)c1cccc(Oc2ccc(Nc3ncnc4ccn(CCO)c34)cc2Cl)n1` [Example 29, N-(tert-butyl)-6-(2-chloro-4-{[5-(2-hydroxyethyl)-5H-pyrrolo[3,2-d]pyrimidin-4-yl]amino}phenoxy)pyridine-2-carboxamide], the inhibition at 1 µM in assay [2] was found to be 100%.

For the compound `OCCn1ccc2ncnc(Nc3ccc(Oc4cccc5sccc45)c(Cl)c3)c21` [Example 83, 2-(4-{[4-(1-benzothiophen-4-yloxy)-3-chlorophenyl]amino}-5H-pyrrolo[3,2-d]pyrimidin-5-yl)ethanol], the inhibition at 1 µM in assay [2] was found to be 99%.

Regarding `Cn1ccc2ncnc(Nc3ccc(Oc4cccc5[nH]ncc45)c(Cl)c3)c21` [Example 86, N-[3-chloro-4-(1H-indazol-4-yloxy)phenyl]-5-methyl-5H-pyrrolo[3,2-d]pyrimidin-4-amine], the IC50 in assay [1] is below 0.1 µM.

Turning to `OCCn1ccc2ncnc(Nc3ccc(Oc4cccc5[nH]ncc45)c(Cl)c3)c21` [Example 95, 2-(4-{[3-chloro-4-(1H-indazol-4-yloxy)phenyl]amino}-5H-pyrrolo[3,2-d]pyrimidin-5-yl)ethanol], in assay [1], the IC50 is below 0.1 µM. Also, the inhibition at 1 µM in assay [2] stood at 100%.

With `CC(C)(CO)C(=O)NCCn1ccc2ncnc(Nc3ccc(Oc4cccc5sccc45)c(Cl)c3)c21` [Example 114, N-[2-(4-{[4-(1-benzothiophen-4-yloxy)-3-chlorophenyl]amino}-5H-pyrrolo[3,2-d]pyrimidin-5-yl)ethyl]-3-hydroxy-2,2-dimethylpropanamide], the IC50 in assay [1] is below 0.1 µM.

With `CC(C)(CO)C(=O)NCCn1ccc2ncnc(Nc3ccc(Oc4cccc5sccc45)c(Cl)c3)c21` [Example 127, N-[2-(4-{[4-(1-benzothiophen-4-yloxy)-3-chlorophenyl]amino}-5H-pyrrolo[3,2-d]pyrimidin-5-yl)ethyl]-3-hydroxy-2,2-dimethylpropanamide tosylate], the inhibition at 1 µM in assay [2] was 99%.

As to `CC(C)(O)CC(=O)NCCn1ccc2ncnc(Nc3ccc(Oc4ccc5ccnn5c4)c(Cl)c3)c21` [Example 147, N-[2-(4-{[3-chloro-4-(pyrazolo[1,5-a]pyridin-6-yloxy)phenyl]amino}-5H-pyrrolo[3,2-d]pyrimidin-5-yl)ethyl]-3-hydroxy-3-methylbutanamide hydrochloride], in assay [1], the half-inhibitory concentration (IC50) is below 0.1 µM.

For `CC(C)(CO)C(=O)NCCn1ccc2ncnc(Nc3ccc(Oc4ccc5ccnn5c4)c(Cl)c3)c21` [Example 159, N-[2-(4-{[3-chloro-4-(pyrazolo[1,5-a]pyridin-6-yloxy)phenyl]amino}-5H-pyrrolo[3,2-d]pyrimidin-5-yl)ethyl]-3-hydroxy-2,2-dimethylpropanamide methanesulfonate], in assay [2], the inhibition at 1 µM came out at 100%.

Regarding `CC(C)(CO)C(=O)NCCn1ccc2ncnc(Nc3ccc(Oc4ccn5ccnc5c4)c(Cl)c3)c21` [Example 164, N-[2-(4-{[3-chloro-4-(imidazo[1,2-a]pyridin-7-yloxy)phenyl]amino}-5H-pyrrolo[3,2-d]pyrimidin-5-yl)ethyl]-3-hydroxy-2,2-dimethylpropanamide], in assay [2], the inhibition at 1 µM was determined as 100%.

As for `CC(C)(CO)C(=O)NCCn1ccc2ncnc(Nc3ccc(Oc4ccn5ncnc5c4)c(Cl)c3)c21` [Example 166, N-[2-(4-{[3-chloro-4-([1,2,4]triazolo[1,5-a]pyridin-7-yloxy)phenyl]amino}-5H-pyrrolo[3,2-d]pyrimidin-5-yl)ethyl]-3-hydroxy-2,2-dimethylpropanamide], in assay [1], the 50% inhibitory concentration (IC50) is below 0.1 µM.

`CN1C(=O)Cc2c(Oc3ccc(Nc4ncnc5cc(Cl)n(CCO)c45)cc3Cl)cccc21` [Example 170, 4-(2-chloro-4-{[6-chloro-5-(2-hydroxyethyl)-5H-pyrrolo[3,2-d]pyrimidin-4-yl]amino}phenoxy)-1-methyl-1,3-dihydro-2H-indol-2-one]: in assay [2], the inhibition at 1 µM was 97%.
